According to US20230381142A1, “ANTILEISHMANIAL COMPOUNDS, COMPOSITIONS AND USE THEREOF” (TRUSTEES OF BOSTON UNIVERSITY, priority 2022, published 2023):
In brackets after ≈: the same amount, converted by molar mass.

Tests used:
[1] = system: L. donovani intracellular amastigotes infecting THP-1 macrophages; assay: GSK intramacrophage L. donovani assay (LD AMMAC, inMac; Assay Conditions C); assay type: cell-based; settings: Leishmania donovani; for IC50: THP-1; for EC50: growth inhibition of L. donovani intracellular amastigotes infecting THP-1 macrophages, read-out: LD AMMAC EC50
How it was run: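 EC50 values come from counting amastigotes per infected THP-1 macrophage (AMMAC). Parallel read-outs give percentage of infected cells per well (INFCELL) and a macrophage-number toxicity EC50 (MAC).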

[2] = system: host THP-1 macrophages; assay: GSK inMac assay, host cell toxicity readout (LD MAC); assay type: cell-based, human; settings: Homo sapiens, THP-1, cytotoxicity against host THP-1 macrophages
How it was run: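 MAC EC50 reflects THP-1 host cell counts, measured within GSK's inMac L. donovani infection assay that also scores intracellular amastigotes and infected-cell percentage.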

[3] = system: HepG2 cells; assay: HepG2 cytotoxicity; assay type: cell-based; settings: Homo sapiens; toxicity against HepG2 cells
Procedure: Given the literature precedents described above and the apparent narrow tolerance for R^3 substitutions observed in the primary screen compounds, a thorough and methodical assessment was undertaken of tolerated groups at the three points of diversity (R^1/R^2/R^3) for the core. At this stage of the project, all analogues were assessed using a battery of assays performed in-house at GlaxoSmithKline. For antileishmanial activity, GSK's inMac assay was utilized. This assay provides two readouts of compound potency: average number of intracellular amastigotes per infected cell (AMMAC) EC50, percentage of infected cells per well (INFCELL) EC50, as well as a toxicity output derived from the number of host cells (MAC EC50). In addition, compounds were assessed for toxicity against HepG2 cells (HEPG2 EC50). Here, AMMAC EC50 values were focused on for relative potency assessments. […] It should be noted that for all compounds assessed in this project, the measured toxicity against THP-1 macrophages either equaled or exceeded that of HepG2 hepatocytes, therefore the MAC SI is used here as the more conservative estimate of therapeutic index.

[4] = system: L. donovani intracellular amastigotes in B10R cells; assay: UCSD L. donovani infection assay (Assay Conditions D); assay type: cell-based; settings: Leishmania donovani
How it was run: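 Compounds, either single-point at 10 μM or 10-point 2-fold series (3 technical, 2 biological replicates), were incubated 72 h at 37° C. with B10R host cells co-seeded with day-7 stationary L. donovani promastigotes (20:1). DAPI-stained nuclei imaging yielded intracellular parasite EC50 and host-cell CC50.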

[5] = Kinetic aqueous solubility by CLND; assay type: physicochemical; settings: kinetic from dmso stock, high-throughput CLND
Procedure: Solubility of compounds using ChemiLuminescent Nitrogen Detection (CLND) was measured as described. Solubility of compounds using Charged Aerosol Detection (CAD) was measured as described. Solubility of solid compounds in Fasted Simulated Intestinal Fluid (FaSSIF) was measured as described.

[6] = Artificial membrane permeability (AMP); assay type: in vitro ADME; settings: PAMPA, pH 7.4
Procedure: Passive permeability of compounds via rate of permeation through an artificial phospholipid membrane at pH 7.4 was measured in a high-throughput format, in duplicate. A solution of 1.8% phosphatidylcholine in 1% decane was added to a 96-well Millicell filter plate along with 250 μL of 50 mM phosphate buffer, pH 7.4 on the donor side, and 100 μL of the same buffer solution on the receiver side. The assay plate was shaken for 45 minutes before adding test compounds. Test compounds were then added to the filter plate and then incubated at room temperature with shaking for three hours. The donor and receiver solutions were next transferred to a 384-well plate for analysis by LC/MS.

[7] = biological target: human serum albumin (Homo sapiens, UniProt P02768); assay: Human serum albumin (HSA) binding, chromatographic; assay type: in vitro ADME
human serum albumin, sequence (P02768 25-609): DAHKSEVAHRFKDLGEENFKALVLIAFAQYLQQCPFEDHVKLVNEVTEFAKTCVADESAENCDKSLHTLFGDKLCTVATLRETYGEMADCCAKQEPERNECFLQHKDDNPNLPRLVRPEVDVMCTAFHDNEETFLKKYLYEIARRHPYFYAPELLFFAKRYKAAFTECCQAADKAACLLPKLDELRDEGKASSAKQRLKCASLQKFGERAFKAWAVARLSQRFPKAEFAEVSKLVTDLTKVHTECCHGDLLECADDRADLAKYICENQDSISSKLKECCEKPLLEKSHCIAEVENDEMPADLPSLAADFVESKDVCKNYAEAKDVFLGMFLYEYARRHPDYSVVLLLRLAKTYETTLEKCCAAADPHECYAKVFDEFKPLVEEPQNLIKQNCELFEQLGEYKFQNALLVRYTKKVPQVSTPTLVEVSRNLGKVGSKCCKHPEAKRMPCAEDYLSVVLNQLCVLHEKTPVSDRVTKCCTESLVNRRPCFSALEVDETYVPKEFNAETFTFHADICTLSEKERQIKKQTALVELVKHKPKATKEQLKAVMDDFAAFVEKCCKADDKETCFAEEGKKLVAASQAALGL
Procedure: The percentage of compound bound to human serum albumin was measured using a chromatographic method as described. Briefly, each compound was assayed on an immobilized HSA column and gradient retention times measured, with chromatographic peak detection by UV. Each retention time was then converted to a % HSA bound value using a calibration set of compounds with a known % HSA binding.

[8] = Property forecast index (PFI = ChromLogD7.4 + aromatic rings); assay type: physicochemical
Procedure: At the outset of the project, compound 1 was evaluated against GSK's established criteria for antileishmanial compound advancement (Table 2). Some of these assessments were performed on racemic 1, while chiral separation was also pursued of the 1 racemate to determine the active enantiomer. […] Based on this promising profile, it progressed into medicinal chemistry optimization to better understand structure-activity relationships (SAR) toward improved potency, as well as structure-property relationships (SPR) with an eye toward reducing PFI and plasma protein binding.

[9] = aqueous medium (not further specified)

| IC50 [1] [µM] | EC50 [1] [µM] | IC50 [4] [µM] | solubility ([5]; aqueous (not further specified)) [µM] | Papp at 3 h [6] [×10⁻⁶ cm/s] | HSA Binding [7] [%] | PFI [8] | solubility [5, 9] [µM] | SMILES | EC50 [2] [µM] | EC50 [3] [µM] |
| --- | --- | --- | --- | --- | --- | --- | --- | --- | --- | --- |
| 1 | 1 | 0.2 | 33 (≈ 13 µg/mL) | 16 | 96.1 | 9.0 | – | CC(C)Cc1n[nH]c2c1C(c1ccc(F)cc1)N(c1ccc(N(C)C)cc1)C2=O (centres unmarked) [Compound 21, 5-(4-(dimethylamino)phenyl)-4-(4-fluorophenyl)-3-isobutyl-4,5-dihydropyrrolo[3,4-c]pyrazol-6(1H)-one] | 39.8 | 50.1 |
| 15.9 | 15.8 | 10.4 | – | 23 | 76.7 | 5.3 | ≥ 433 | CC(C)Cc1n[nH]c2c1C(c1ccc(F)cc1)N(CCN1CCCC1)C2=O (centres unmarked) [Compound 39] | > 50 | > 100 |
| – | 7.9 | – | – | 28 | 96.8 | 9.0 | 19 (≈ 7.52 µg/mL) | COc1ccc(N2C(=O)c3[nH]nc(CC(C)C)c3C2c2cccc(Cl)c2)cc1 (centres unmarked) [Compound 59] | 39.8 | 39.8 |
| – | 7.9 | – | – | 37 | 97 | 9.1 | 10 (≈ 4.4 µg/mL) | COc1ccc(N2C(=O)c3[nH]nc(CC(C)C)c3C2c2cccc(Br)c2)cc1 (centres unmarked) [Compound 60] | 25.1 | 39.8 |
| – | 4 | – | – | 29 | 95 | 8.4 | 63 (≈ 24.7 µg/mL) | COc1ccc(N2C(=O)c3[nH]nc(CC(C)C)c3C2c2cccc(OC)c2)cc1 (centres unmarked) [Compound 61] | 20 | 63.1 |
| – | 6.3 | – | – | 22 | 97.8 | 8.9 | 20 (≈ 8.59 µg/mL) | COc1ccc(N2C(=O)c3[nH]nc(CC(C)C)c3C2c2cccc(C(F)(F)F)c2)cc1 (centres unmarked) [Compound 62] | 15.8 | 50.1 |
| – | 2 | – | – | 14 | 96.1 | 8.8 | 52 (≈ 20.7 µg/mL) | COc1ccc(N2C(=O)c3[nH]nc(CC(C)C)c3C2c2ccc(F)cc2F)cc1 (centres unmarked) [Compound 63] | 25.1 | 63.1 |
| – | 0.5 | – | – | 11 | 97.2 | 8.8 | 43 (≈ 16.9 µg/mL) | COc1ccc(N2C(=O)c3[nH]nc(CC(C)C)c3C2c2ccc(F)cc2C)cc1 (centres unmarked) [Compound 64, 4-(4-fluoro-2-methylphenyl)-3-isobutyl-5-(4-methoxyphenyl)-4,5-dihydropyrrolo[3,4-c]pyrazol-6(1H)-one] | 25.1 | 50.1 |
| – | 5 | – | – | 14 | 96.2 | 8.7 | 44 (≈ 17.5 µg/mL) | COc1ccc(N2C(=O)c3[nH]nc(CC(C)C)c3C2c2ccc(F)c(F)c2)cc1 (centres unmarked) [Compound 65, 4-(3,4-difluorophenyl)-3-isobutyl-5-(4-methoxyphenyl)-4,5-dihydropyrrolo[3,4-c]pyrazol-6(1H)-one] | 25.1 | 50.1 |
| – | 1 | – | – | 33 | 97.1 | 9.1 | 6 (≈ 2.58 µg/mL) | COc1ccc(N2C(=O)c3[nH]nc(CC(C)C)c3C2c2c(Cl)cccc2Cl)cc1 (centres unmarked) [Compound 66] | 2.5 | 6.3 |
| – | 15.8 | – | – | 29 | 94.8 | 9.0 | 188 (≈ 86.2 µg/mL) | COc1ccc(N2C(=O)c3[nH]nc(CC(C)C)c3C2C2CCN(Cc3ccccc3)CC2)cc1 (centres unmarked) [Compound S1] | 20 | 63.1 |
| – | 7.9 | – | – | 30 | 95.9 | 8.2 | 8 (≈ 2.94 µg/mL) | COc1ccc(N2C(=O)c3[nH]nc(CC(C)C)c3C2c2cccs2)cc1 (centres unmarked) [Compound S2] | > 50 | > 100 |
| – | 15.8 | – | – | 32 | 89.3 | 6.5 | ≥ 534 | COc1ccc(N2C(=O)c3[nH]nc(CC(C)C)c3C2c2cncs2)cc1 (centres unmarked) [Compound S4] | > 50 | > 100 |
| – | 20 | – | – | 42 | 89.5 | 7.2 | 143 (≈ 52.7 µg/mL) | COc1ccc(N2C(=O)c3[nH]nc(CC(C)C)c3C2c2nccs2)cc1 (centres unmarked) [Compound S5] | > 50 | > 100 |
| – | > 50 | – | – | 23 | 87.9 | 6.3 | ≥ 432 | COc1ccc(N2C(=O)c3[nH]nc(CC(C)C)c3C2c2ccncc2)cc1 (centres unmarked) [Compound S6] | > 50 | > 100 |
| – | 31.6 | – | – | 42 | 86.8 | 7.1 | ≥ 450 | COc1ccc(N2C(=O)c3[nH]nc(CC(C)C)c3C2c2ccccn2)cc1 (centres unmarked) [Compound S7] | > 50 | > 100 |
| – | > 50 | – | – | 34 | 76.8 | 6.3 | 273 (≈ 99.2 µg/mL) | COc1ccc(N2C(=O)c3[nH]nc(CC(C)C)c3C2c2ccncn2)cc1 (centres unmarked) [Compound S8] | > 50 | > 100 |
| – | > 50 | – | – | 5 | 70.5 | 5.5 | ≥ 340 | COc1ccc(N2C(=O)c3[nH]nc(CC(C)C)c3C2c2ccnnc2)cc1 (centres unmarked) [Compound S9] | > 50 | > 100 |
| – | 10 | – | – | 47 | 91.2 | 6.6 | 386 (≈ 151 µg/mL) | COc1ccc(N2C(=O)c3[nH]nc(CC(C)C)c3C2c2cncc(OC)c2)cc1 (centres unmarked) [Compound S11] | 20 | > 100 |
| – | > 50 | – | – | 44 | 92.6 | 7.5 | 272 (≈ 107 µg/mL) | COc1ccc(N2C(=O)c3[nH]nc(CC(C)C)c3C2c2ccc(OC)nc2)cc1 (centres unmarked) [Compound S12] | > 50 | > 100 |
| – | 12.6 | – | – | 38 | 94.4 | 8.3 | 305 (≈ 120 µg/mL) | COc1ccc(N2C(=O)c3[nH]nc(CC(C)C)c3C2c2ccc(F)c(C)n2)cc1 (centres unmarked) [Compound S13] | > 50 | > 100 |
| – | > 50 | – | – | 54 | 93 | 7.4 | 367 (≈ 146 µg/mL) | COc1ccc(N2C(=O)c3[nH]nc(CC(C)C)c3C2c2cc(F)nc(F)c2)cc1 (centres unmarked) [Compound S14] | > 50 | > 100 |
